Results published in patent US20250312462A1, “PAK1 DEGRADERS AND METHODS OF USE THEREOF” (INSTITUTE FOR CANCER RESEARCH D/B/A THE RESEARCH INSTITUTE …, priority 2022, published 2025).

Experiments:
CLK2 = CLK2 (Homo sapiens, UniProt P49760); experiment: KINOMEscan; settings: read-out: Percent Control
Protocol: (§1) The kinase engagement assay (KINOMEscan®) was performed by DiscoverX assessing binding abilities toward a set of kinases.

KIT(V559D, T670I) = KIT(V559D, T670I) (Homo sapiens, UniProt P10721, T670I/V559D); experiment: KINOMEscan; settings: read-out: Percent Control
Protocol: as §1

CDK4-cyclinD3 = CDK4-cyclinD3 (Homo sapiens, UniProt P11802); experiment: KINOMEscan; settings: read-out: Percent Control
Protocol: as §1

PRKCE = PRKCE (Homo sapiens, UniProt Q02156); experiment: KINOMEscan; settings: read-out: Percent Control
Chain of PRKCE (Q02156 whole entry): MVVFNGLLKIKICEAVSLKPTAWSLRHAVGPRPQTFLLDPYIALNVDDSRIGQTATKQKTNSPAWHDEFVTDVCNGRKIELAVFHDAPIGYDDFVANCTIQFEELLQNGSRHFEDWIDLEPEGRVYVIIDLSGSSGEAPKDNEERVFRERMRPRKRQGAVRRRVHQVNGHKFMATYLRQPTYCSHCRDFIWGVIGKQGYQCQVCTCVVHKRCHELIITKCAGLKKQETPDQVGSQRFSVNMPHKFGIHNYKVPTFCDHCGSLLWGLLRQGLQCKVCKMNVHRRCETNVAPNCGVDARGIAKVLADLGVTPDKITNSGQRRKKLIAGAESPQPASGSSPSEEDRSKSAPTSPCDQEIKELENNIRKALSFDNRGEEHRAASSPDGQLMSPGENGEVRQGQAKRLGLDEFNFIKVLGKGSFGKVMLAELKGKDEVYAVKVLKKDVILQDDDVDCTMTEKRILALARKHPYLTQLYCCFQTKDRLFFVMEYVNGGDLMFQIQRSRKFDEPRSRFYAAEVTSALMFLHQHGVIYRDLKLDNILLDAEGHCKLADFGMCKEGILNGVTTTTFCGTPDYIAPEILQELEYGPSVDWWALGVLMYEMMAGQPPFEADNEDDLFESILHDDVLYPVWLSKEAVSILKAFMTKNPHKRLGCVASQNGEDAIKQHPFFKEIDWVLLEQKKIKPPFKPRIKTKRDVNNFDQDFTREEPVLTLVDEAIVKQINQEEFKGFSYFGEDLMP
Protocol: as §1

WEE1 = WEE1 (Homo sapiens, UniProt P30291); experiment: KINOMEscan; settings: read-out: Percent Control
Protocol: as §1

CASK = CASK (Homo sapiens, UniProt O14936); experiment: KINOMEscan; settings: read-out: Percent Control
Chain of CASK (O14936 whole entry): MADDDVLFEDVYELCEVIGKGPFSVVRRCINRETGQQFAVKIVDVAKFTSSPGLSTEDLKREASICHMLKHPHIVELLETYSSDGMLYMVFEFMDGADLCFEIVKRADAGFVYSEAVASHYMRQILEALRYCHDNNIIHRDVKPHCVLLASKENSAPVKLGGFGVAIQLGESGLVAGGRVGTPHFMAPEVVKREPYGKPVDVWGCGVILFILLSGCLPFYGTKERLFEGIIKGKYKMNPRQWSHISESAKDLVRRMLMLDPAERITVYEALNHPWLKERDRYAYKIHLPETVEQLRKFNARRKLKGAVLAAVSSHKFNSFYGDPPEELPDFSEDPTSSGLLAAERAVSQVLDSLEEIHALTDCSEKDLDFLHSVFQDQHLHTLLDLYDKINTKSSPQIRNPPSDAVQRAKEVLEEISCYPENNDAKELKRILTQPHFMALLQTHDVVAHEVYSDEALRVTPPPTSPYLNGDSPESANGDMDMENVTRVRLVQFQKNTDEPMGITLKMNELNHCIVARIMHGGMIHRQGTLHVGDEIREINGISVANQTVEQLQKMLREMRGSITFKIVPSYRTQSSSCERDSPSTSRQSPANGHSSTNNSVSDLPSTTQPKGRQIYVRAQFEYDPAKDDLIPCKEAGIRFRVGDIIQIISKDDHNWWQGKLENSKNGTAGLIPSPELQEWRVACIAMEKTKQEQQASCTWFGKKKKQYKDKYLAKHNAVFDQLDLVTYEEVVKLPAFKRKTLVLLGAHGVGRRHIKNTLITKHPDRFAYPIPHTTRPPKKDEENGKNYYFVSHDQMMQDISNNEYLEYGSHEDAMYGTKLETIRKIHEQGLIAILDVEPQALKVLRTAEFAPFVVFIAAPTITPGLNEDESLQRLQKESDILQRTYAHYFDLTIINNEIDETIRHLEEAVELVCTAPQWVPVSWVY
Protocol: as §1

KIT = KIT (Homo sapiens, UniProt P10721); experiment: KINOMEscan; settings: read-out: Percent Control
Chain of KIT (P10721 26-976): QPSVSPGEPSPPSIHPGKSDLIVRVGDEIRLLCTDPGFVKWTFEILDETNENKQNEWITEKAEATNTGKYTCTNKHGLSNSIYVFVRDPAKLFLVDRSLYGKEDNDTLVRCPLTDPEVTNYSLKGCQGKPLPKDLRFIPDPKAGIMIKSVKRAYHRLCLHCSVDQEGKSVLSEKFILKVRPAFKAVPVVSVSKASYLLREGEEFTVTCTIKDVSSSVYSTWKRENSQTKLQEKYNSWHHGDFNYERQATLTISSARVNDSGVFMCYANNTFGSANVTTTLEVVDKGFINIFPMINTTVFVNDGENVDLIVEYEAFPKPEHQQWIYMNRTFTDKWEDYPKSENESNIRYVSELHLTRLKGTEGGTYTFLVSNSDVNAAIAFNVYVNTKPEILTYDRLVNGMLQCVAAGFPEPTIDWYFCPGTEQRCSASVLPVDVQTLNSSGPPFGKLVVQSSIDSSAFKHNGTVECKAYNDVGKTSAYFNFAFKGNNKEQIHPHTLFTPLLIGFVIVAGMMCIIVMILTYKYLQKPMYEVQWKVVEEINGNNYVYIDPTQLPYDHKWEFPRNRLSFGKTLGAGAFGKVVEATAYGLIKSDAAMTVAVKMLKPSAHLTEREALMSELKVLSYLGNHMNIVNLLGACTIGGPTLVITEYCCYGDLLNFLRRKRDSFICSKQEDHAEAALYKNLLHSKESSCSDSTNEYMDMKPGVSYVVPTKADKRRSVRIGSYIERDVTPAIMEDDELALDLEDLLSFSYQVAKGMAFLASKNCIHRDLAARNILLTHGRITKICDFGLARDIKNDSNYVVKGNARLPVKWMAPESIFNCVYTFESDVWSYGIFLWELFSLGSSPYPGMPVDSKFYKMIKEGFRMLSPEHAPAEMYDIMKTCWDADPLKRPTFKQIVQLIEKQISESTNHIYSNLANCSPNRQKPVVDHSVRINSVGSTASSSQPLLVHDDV
Protocol: as §1

PRKR = PRKR (Homo sapiens, UniProt P19525); experiment: KINOMEscan; settings: read-out: Percent Control
Protocol: as §1

MET(M1250T) = MET(M1250T) (Homo sapiens, UniProt P08581, M1250T); experiment: KINOMEscan; settings: read-out: Percent Control
Protocol: as §1

ERK = ERK phosphorylation in OVCAR3 and MCF7 cells, immunoblot; assay type: cell-based; settings: 10 nM, 24 hours
Protocol: FIG. 3A is a series of Western blots showing OVCAR3 and MCF7 cells that were treated for 24 hours with DMSO, 10 nM BJG-05-039, or NVS-PAK1-1 as indicated. MEK and ERK phosphorylation was assessed by immunoblot with the indicated phosphorylation-specific antibodies. FIG. 3B is a Western blot showing MCF7 cells that were stably transduced with a doxycycline-regulated shRNA against PAK1. shRNA expression was induced by the indicated amounts of doxycycline and immunoblots were performed using cell lysates 24 hours post doxycycline addition. FIG. 3C is a Western blot showing MCF7 cells that were treated with vehicle or […] doxycycline. Immunoblots were performed using cell lysates 24 hours post doxycycline addition.
Cells were washed once in PBS and lysed in RIPA buffer (50 mM Tris-HCl, 150 mM NaCl, 0.25% (w/v) sodium deoxycholate, 1% (w/v) NP-40, pH 7.5) containing protease inhibitor cocktail (Roche) and phosphatase inhibitor cocktail (Roche) for 30 minutes on ice. […]
In certain cell lines, PAK1 has well-characterized functions in regulating proliferative signaling. […] As a readout for anti-PAK activity, phosphorylation of MEK1 at S298 was assessed, a direct target site for Group A PAKs (Coles, et al. (2002) Oncogene 21:2236-2244; Slack-Davis, et al. (2003) J. Cell. Biol., 162:281-291), as well as phosphorylation of the downstream target of MEK, ERK. […]

EPHA4 = EPHA4 (Homo sapiens, UniProt P54764); experiment: KINOMEscan; settings: read-out: Percent Control
Chain of EPHA4 (P54764 20-986): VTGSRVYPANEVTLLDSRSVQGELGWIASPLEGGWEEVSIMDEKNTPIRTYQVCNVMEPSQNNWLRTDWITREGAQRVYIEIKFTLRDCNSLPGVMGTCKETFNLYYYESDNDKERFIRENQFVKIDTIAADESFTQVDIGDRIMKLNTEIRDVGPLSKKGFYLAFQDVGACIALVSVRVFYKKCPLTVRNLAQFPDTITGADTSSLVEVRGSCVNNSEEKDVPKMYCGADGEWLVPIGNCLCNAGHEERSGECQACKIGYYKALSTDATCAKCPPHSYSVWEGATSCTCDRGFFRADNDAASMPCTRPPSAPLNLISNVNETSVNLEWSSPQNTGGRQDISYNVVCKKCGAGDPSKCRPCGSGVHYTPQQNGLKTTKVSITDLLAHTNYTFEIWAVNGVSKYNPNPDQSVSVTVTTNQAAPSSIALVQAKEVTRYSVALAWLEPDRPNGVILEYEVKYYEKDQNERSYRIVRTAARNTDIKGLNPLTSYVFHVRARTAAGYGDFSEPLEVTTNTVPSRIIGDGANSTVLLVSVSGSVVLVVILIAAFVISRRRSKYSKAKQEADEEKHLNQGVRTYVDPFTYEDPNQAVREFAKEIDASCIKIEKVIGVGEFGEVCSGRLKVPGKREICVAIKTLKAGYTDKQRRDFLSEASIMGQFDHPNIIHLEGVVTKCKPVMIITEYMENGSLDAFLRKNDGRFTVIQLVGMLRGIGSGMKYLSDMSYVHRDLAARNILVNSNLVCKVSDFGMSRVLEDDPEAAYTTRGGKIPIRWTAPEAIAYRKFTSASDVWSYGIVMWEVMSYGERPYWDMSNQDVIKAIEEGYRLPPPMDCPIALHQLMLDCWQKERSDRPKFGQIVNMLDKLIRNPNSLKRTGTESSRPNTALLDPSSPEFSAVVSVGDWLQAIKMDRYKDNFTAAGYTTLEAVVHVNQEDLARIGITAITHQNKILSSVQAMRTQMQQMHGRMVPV
Protocol: as §1

DDR2 = DDR2 (Homo sapiens, UniProt Q16832); experiment: KINOMEscan; settings: read-out: Percent Control
Protocol: as §1

DLK = DLK (Homo sapiens, UniProt Q12852); experiment: KINOMEscan; settings: read-out: Percent Control
Protocol: as §1

SRPK2 = SRPK2 (Homo sapiens, UniProt P78362); experiment: KINOMEscan; settings: read-out: Percent Control
Protocol: as §1

BRK = BRK (Homo sapiens, UniProt Q13882); experiment: KINOMEscan; settings: read-out: Percent Control
Chain of BRK (Q13882 whole entry): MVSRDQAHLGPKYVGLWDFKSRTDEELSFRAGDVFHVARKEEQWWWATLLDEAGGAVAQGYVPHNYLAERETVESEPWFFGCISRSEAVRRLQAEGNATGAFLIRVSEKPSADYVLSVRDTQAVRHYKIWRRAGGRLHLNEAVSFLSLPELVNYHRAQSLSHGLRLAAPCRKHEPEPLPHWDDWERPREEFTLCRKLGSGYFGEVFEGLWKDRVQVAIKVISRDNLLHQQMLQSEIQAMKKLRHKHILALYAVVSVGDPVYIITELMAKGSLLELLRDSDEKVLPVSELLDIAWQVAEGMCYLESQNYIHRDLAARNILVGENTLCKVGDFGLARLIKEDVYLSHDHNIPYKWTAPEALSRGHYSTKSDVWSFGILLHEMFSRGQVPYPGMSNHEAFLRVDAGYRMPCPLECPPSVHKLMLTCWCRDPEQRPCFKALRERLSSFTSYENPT
Protocol: as §1

PAK2 = PAK2 (Homo sapiens, UniProt Q13177); experiment: PAK2 degradation in MCF7 and OVCAR3 cells, immunoblot; assay type: cell-based; parameters: due to their high expression of both PAK1 and PAK2; endogenous in cells; host or cells: MCF7, OVCAR3
Protocol: […]. Cells were incubated overnight then treated with various concentrations of Pak degraders alone or together with bortezomib or lenalidomide for 24 hours. Protein lysates were harvested at the times specified.
Cells were washed once in PBS and lysed in RIPA buffer (50 mM Tris-HCl, 150 mM NaCl, 0.25% (w/v) sodium deoxycholate, 1% (w/v) NP-40, pH 7.5) containing protease inhibitor cocktail (Roche) and phosphatase inhibitor cocktail (Roche) for 30 minutes on ice. Cell lysates were obtained by centrifugation at 13,500 rpm for 15 minutes at 4° C. BCA protein assay (Thermo Scientific) was used to determine protein concentration then equal amounts of total proteins were separated by SDS-PAGE (Bio-Rad) and transferred to PVDF membrane (Thermo Scientific) at 100V for 2 hours. Membranes were blocked in 5% (w/v) non-fat dry milk in tris-buffered saline with 0.1% Tween-20 (TBS-T) for 1 hour and incubated with primary antibody at 4° C. for overnight. […]
After verifying that BJG-05-039 retained specificity for PAK1, its degradation activity in cells was characterized. First, the PAK1 degrader was evaluated in the breast cancer cell line MCF7 and the ovarian cancer cell line OVCAR3 due to their high expression of both PAK1 and PAK2 and their known dependence on PAK1 (Prudnikova, et al. (2016) Oncogene 35:2178-2185; Shrestha, et al. (2012) Oncogene 31:3397-3408). […]

MRCKB = MRCKB (Homo sapiens, UniProt Q9Y5S2); experiment: KINOMEscan; settings: read-out: Percent Control
Protocol: as §1

KIT(D816V) = KIT(D816V) (Homo sapiens, UniProt P10721, D816V); experiment: KINOMEscan; settings: read-out: Percent Control
Chain of KIT(D816V) (P10721 26-976 D816V): as the sequence (P10721 26-976) above, with D791V counted along it
Protocol: as §1

ALK(C1156Y) = ALK(C1156Y) (Homo sapiens, UniProt Q9UM73, C1156Y); experiment: KINOMEscan; settings: read-out: Percent Control
Protocol: as §1

TXK = TXK (Homo sapiens, UniProt P42681); experiment: KINOMEscan; settings: read-out: Percent Control
Chain of TXK (P42681 whole entry): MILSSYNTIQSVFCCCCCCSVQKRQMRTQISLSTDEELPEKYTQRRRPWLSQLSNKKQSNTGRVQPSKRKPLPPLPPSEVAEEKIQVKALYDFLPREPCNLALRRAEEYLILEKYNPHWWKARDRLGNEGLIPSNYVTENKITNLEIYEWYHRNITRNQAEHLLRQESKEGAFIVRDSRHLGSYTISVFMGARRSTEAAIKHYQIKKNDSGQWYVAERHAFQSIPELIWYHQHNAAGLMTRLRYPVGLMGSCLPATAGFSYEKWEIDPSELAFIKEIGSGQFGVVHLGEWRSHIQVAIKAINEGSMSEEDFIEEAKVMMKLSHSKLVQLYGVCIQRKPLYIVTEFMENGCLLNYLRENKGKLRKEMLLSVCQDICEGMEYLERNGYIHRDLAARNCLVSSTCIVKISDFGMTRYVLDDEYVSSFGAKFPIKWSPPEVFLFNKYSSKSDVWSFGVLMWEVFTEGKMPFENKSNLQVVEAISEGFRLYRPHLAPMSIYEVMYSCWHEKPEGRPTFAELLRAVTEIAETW
Protocol: as §1

CSNK1E = CSNK1E (Homo sapiens, UniProt P49674); experiment: KINOMEscan; settings: read-out: Percent Control
Chain of CSNK1E (P49674 whole entry): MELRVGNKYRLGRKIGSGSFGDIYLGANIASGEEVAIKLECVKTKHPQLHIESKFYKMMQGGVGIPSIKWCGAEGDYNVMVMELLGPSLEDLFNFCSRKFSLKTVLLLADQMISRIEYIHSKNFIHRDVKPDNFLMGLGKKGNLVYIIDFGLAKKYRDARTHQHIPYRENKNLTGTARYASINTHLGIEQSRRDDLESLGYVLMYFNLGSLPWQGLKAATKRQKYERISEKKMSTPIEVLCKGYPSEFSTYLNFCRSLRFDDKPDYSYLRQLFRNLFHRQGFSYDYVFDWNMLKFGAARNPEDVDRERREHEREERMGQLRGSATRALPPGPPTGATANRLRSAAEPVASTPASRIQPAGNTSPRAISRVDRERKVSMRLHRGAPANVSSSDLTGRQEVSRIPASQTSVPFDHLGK
Protocol: as §1

Chain of KIT(V559D, T670I) (P10721 26-976 V559D/T670I): as the sequence (P10721 26-976) above, with V534D, T645I counted along it

Q: Which results are given for `O=C1CCC(N2C(=O)c3cccc(NCCCCCCCCNC(=O)N4CC[C@H](NC5=Nc6cc(F)ccc6N(CC(F)F)c6ccc(Cl)cc65)C4)c3C2=O)C(=O)N1` (stereo partly drawn) [BJG-05-039, (3S)-3-((2-Chloro-5-(2,2-difluoroethyl)-8-fluoro-5H-dibenzo[b,e][1,4]diazepin-11-yl)amino)-N-(8-((2-(2,6-dioxopiperidin-3-yl)-1,3-dioxoisoindolin-4-yl)amino)octyl)pyrrolidine-1-carboxamide]?
A: remaining binding at 10 µM (CLK2): 95%; remaining binding at 10 µM (KIT(V559D, T670I)): 85%; remaining binding at 10 µM (CDK4-cyclinD3): 100%; remaining binding at 10 µM (PRKCE): 100%; remaining binding at 10 µM (WEE1): 42%; remaining binding at 10 µM (CASK): 99%; remaining binding at 10 µM (KIT): 82%; remaining binding at 10 µM (PRKR): 81%; remaining binding at 10 µM (MET(M1250T)): 61%; Phosphorylation of ERK (ERK): inhibiting phosphorylation of ERK; remaining binding at 10 µM (EPHA4): 82%; remaining binding at 10 µM (DDR2): 86%; remaining binding at 10 µM (DLK): 100%; remaining binding at 10 µM (SRPK2): 91%; remaining binding at 10 µM (BRK): 72%; PAK2 degradation (PAK2): not PAK2; remaining binding at 10 µM (MRCKB): 67%; remaining binding at 10 µM (KIT(D816V)): 87%; remaining binding at 10 µM (ALK(C1156Y)): 100%; remaining binding at 10 µM (TXK): 90%; remaining binding at 10 µM (CSNK1E): 61%
